Assays:
human CYP11B2 = biological target: T1, human CYP11B2 (Homo sapiens, UniProt P19099); test: Inhibition of hCYP11B2 in transfected V79 cells; format: cell-based; settings: hamster V79 cells expressing human CYP11B2; substrate 11-deoxycorticosterone 200 nM
T1 construct: expressed in transfected cells
T1 sequence (P19099 25-503): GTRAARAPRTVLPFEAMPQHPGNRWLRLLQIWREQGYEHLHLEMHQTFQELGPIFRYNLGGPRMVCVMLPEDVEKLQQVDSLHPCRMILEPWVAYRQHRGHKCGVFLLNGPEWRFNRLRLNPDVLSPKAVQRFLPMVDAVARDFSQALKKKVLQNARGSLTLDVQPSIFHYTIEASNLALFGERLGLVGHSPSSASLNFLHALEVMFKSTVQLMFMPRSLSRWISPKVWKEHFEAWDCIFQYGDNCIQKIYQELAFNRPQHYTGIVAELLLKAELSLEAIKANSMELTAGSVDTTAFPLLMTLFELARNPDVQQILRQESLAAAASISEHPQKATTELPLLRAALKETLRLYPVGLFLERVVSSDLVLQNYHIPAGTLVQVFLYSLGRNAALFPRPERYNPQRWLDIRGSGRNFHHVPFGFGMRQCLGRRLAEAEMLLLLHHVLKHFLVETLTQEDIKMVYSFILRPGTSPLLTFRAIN
Outline: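 The substrate (200 nM, 30 min) was added after a 2 hour compound pre-incubation in lentivirus-transduced V79 cells stably expressing human CYP11B2 plus rat NADPH-P450 reductase.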

human CYP11B1 = biological target: T2, human CYP11B1 (Homo sapiens, UniProt P15538); test: Inhibition of hCYP11B1 in transfected V79 cells; format: cell-based; settings: hamster V79 cells expressing human CYP11B1; substrate 11-deoxycortisol 200 nM
T2 construct: expressed in transfected cells
T2 sequence (P15538 25-503): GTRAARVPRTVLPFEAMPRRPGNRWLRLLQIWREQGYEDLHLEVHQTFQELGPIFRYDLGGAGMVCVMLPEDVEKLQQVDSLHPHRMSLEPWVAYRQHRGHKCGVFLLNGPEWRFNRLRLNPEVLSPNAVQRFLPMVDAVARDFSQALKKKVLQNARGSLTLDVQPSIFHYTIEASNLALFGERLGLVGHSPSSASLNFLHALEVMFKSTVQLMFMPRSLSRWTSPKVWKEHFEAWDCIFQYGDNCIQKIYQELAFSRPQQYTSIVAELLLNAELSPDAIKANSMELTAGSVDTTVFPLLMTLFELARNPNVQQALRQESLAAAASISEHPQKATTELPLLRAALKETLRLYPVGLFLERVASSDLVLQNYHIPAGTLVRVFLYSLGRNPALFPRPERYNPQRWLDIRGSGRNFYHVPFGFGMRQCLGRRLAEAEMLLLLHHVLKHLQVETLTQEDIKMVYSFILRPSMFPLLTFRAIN
Outline: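 Reactions started with 200 nM 11-deoxycortisol, ran for 30 min and were stopped with ethyl acetate, after a 2 h compound preincubation. The host was stably transfected V79 hamster cells carrying human CYP11B1 plus rat P450 reductase. Percent inhibition, from LC-MS/MS or HPLC (260 nm) quantitation of substrate and product, gave the IC50.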

Row | Compound | IC50 (human CYP11B2) [nM] | IC50 (human CYP11B1) [nM]
1 | COc1ccc(S(=O)(=O)N2CCc3c(-c4ccc(C#N)cc4)cncc32)cc1 [C3, 4-(1-((4-Methoxyphenyl)sulfonyl)-2,3-dihydro-1H-pyrrolo[2,3-c]pyridin-4-yl)benzonitrile] | 0.16 | 0.2
2 | COc1ccc(S(=O)(=O)N2CCSc3c(-c4cccc(Cl)c4)cncc32)cc1 [S29, 8-(3-Chlorophenyl)-4-((4-methoxyphenyl)sulfonyl)-3,4-dihydro-2H-pyrido[4,3-b][1,4]thia zine] | 1.5 | 7.3
3 | N#Cc1ccc(S(=O)(=O)N2CCSc3c(-c4cc5ccccc5s4)cncc32)cc1 [S43, 4-((8-(Benzo[b]thiophen-2-yl)-2,3-dihydro-4H-pyrido[4,3-b][1,4]thiazin-4-yl)sulfonyl)benzonitrile] | 6.5 | 621
4 | N#Cc1ccc(-c2cncc3c2CCN3C(=O)c2cccc(Cl)c2)cc1 [C39, 4-(1-(3-Chlorobenzoyl)-2,3-dihydro-1H-pyrrolo[2,3-c]pyridin-4-yl)benzonitrile] | 23 | 298
5 | O=S(=O)(c1ccc(Cl)s1)N1CCSc2c(-c3cc4cc(Cl)ccc4o3)cncc21 [S60, 8-(5-Chlorobenzofuran-2-yl)-4-((5-chlorothiophen-2-yl)sulfonyl)-3,4-dihydro-2H-pyrido-[4,3-b][1,4]thiazine] | 0.7 | 54
6 | Cc1ccc(S(=O)(=O)N2CCOc3c(-c4ccc(C#N)cc4)cncc32)cc1 [O4, 4-(4-Tosyl-3,4-dihydro-2H-pyrido[4,3-b][1,4]oxazin-8-yl)benzonitrile] | 0.1 | 0.1
7 | N#Cc1ccc(-c2cncc3c2ccn3C(=O)c2ccc(C(F)(F)F)cc2)cc1 [E20, 4-(1-(4-(Trifluoromethyl)benzoyl)-1H-pyrrolo[2,3-c]pyridin-4-yl)benzonitrile] | 0.8 | 65
8 | CN1CCN(C(=O)c2ccc(F)cc2)c2cncc(-c3ccc(C#N)cc3)c21 [N5, 4-(4-(4-Fluorobenzoyl)-1-methyl-1,2,3,4-tetrahydropyrido[3,4-b]pyrazin-8-yl)benzonitrile] | 7.8 | 48
9 | N#Cc1ccc(-c2cncc3c2OCCN3C(=O)[C@H]2CCN(Cc3cccc(F)c3)C2)cc1 [O104, (S)-4-(4-(1-(3-Fluorobenzyl)pyrrolidine-3-carbonyl)-3,4-dihydro-2H-pyrido[4,3-b][1,4]oxazin-8-yl)benzonitrile] | 4.1 | 468
10 | N#Cc1ccc(-c2cncc3c2OCCN3S(=O)(=O)c2ccc(C#N)cc2)cc1 [O130, 4-((8-(4-Cyanophenyl)-2,3-dihydro-4H-pyrido[4,3-b][1,4]oxazin-4-yl)sulfonyl)benzonitrile] | 5 | 97
11 | Cc1ccc(C(=O)N2CCSc3c(-c4ccc(C#N)cc4)cncc32)cc1 [S89, 4-(4-(4-Methylbenzoyl)-3,4-dihydro-2H-pyrido[4,3-b][1,4]thiazin-8-yl)benzonitrile] | 43 | 2850
12 | Cn1ncc2cc(-c3cncc4c3CCN4C(=O)c3ccccc3F)ccc21 [C51, (2-Fluorophenyl)(4-(1-methyl-1H-indazol-5-yl)-2,3-dihydro-1H-pyrrolo[2,3-c]pyridin-1-yl)methanone] | 23 | 4250
13 | N#Cc1ccc(-c2cncc3c2OCCN3C(=O)C2CN(S(=O)(=O)c3cccs3)C2)cc1 [O64, 4-(4-(1-(Thiophen-2-ylsulfonyl)azetidine-3-carbonyl)-3,4-dihydro-2H-pyrido[4,3-b][1,4]oxazin-8-yl)benzonitrile] | 0.5 | 63
14 | O=C(c1ccccc1F)N1CCc2c(-c3ccc4occc4c3)cncc21 [C63, (4-(Benzofuran-5-yl)-2,3-dihydro-1H-pyrrolo[2,3-c]pyridin-1-yl)(2-fluorophenyl)methanone] | 113 | 1820
15 | N#Cc1ccc(-c2cncc3c2CCN3S(=O)(=O)c2ccc(F)cc2)cc1 [C7, 4-(1-((4-Fluorophenyl)sulfonyl)-2,3-dihydro-1H-pyrrolo[2,3-c]pyridin-4-yl)benzonitrile] | 0.15 | 1.9
16 | N#Cc1ccc(-c2cncc3c2ccn3C(=O)c2cccc([N+](=O)[O-])c2)cc1 [E22, 4-(1-(3-Nitrobenzoyl)-1H-pyrrolo[2,3-c]pyridin-4-yl)benzonitrile] | 0.6 | 21
17 | N#Cc1ccc(-c2cncc3c2SCCN3C(=O)c2ccc(C(F)(F)F)cc2)cc1 [S88, 4-(4-(4-(Trifluoromethyl)benzoyl)-3,4-dihydro-2H-pyrido[4,3-b][1,4]thiazin-8-yl)benzonitrile] | 6.8 | 251
18 | N#Cc1ccc(-c2cncc3c2ccn3S(=O)(=O)c2ccc(C(F)(F)F)cc2)cc1 [E7, 4-(1-((4-(Trifluoromethyl)phenyl)sulfonyl)-1H-pyrrolo[2,3-c]pyridin-4-yl)benzonitrile] | 0.1 | 0.2
19 | COc1ccc(S(=O)(=O)N2CCSc3c(-c4ccco4)cncc32)cc1 [S38, 8-(Furan-2-yl)-4-((4-methoxyphenyl)sulfonyl)-3,4-dihydro-2H-pyrido[4,3-b][1,4]thiazine] | 2.1 | 0.7
20 | N#Cc1ccc(-c2cncc3c2OCCN3C(=O)c2ccc(Cl)cc2)cc1 [O28, 4-(4-(4-Chlorobenzoyl)-3,4-dihydro-2H-pyrido[4,3-b][1,4]oxazin-8-yl)benzonitrile] | 20.9 | 277
21 | N#Cc1ccc(-c2cncc3c2SCCN3S(=O)(=O)c2cccc3cccnc23)cc1 [S26, 4-(4-(Quinolin-8-ylsulfonyl)-3,4-dihydro-2H-pyrido[4,3-b][1,4]thiazin-8-yl)benzonitrile] | 0.86 | 28
22 | Cc1ccccc1CC(=O)N1CCOc2c(-c3ccc(C#N)cc3)cncc21 [O44, 4-(4-(2-(o-Tolyl)acetyl)-3,4-dihydro-2H-pyrido[4,3-b][1,4]oxazin-8-yl)benzonitrile] | 4.8 | 84
23 | O=C(C1CN(Cc2cccc(F)c2)C1)N1CCOc2c(N3CCn4cnnc4C3)cncc21 [O135, (8-(5,6-Dihydro-[1,2,4]triazolo[4,3-a]pyrazin-7 (8H)-yl)-2,3-dihydro-4H-pyrido[4,3-b][1,4]oxazin-4-yl)(1-(3-fluorobenzyl)azetidin-3-yl)methanone] | 66 | 4130
24 | N#Cc1ccc(-c2cncc3c2CCN3S(=O)(=O)c2ccc(Cl)cc2)cc1 [C13, 4-(1-((4-Chlorophenyl)sulfonyl)-2,3-dihydro-1H-pyrrolo[2,3-c]pyridin-4-yl)benzonitrile] | 0.6 | 0.2
25 | N#Cc1ccc(-c2cncc3c2SCCN3S(=O)(=O)c2ccc(Cl)cc2)cc1 [S15, 4-(4-((4-Chlorophenyl)sulfonyl)-3,4-dihydro-2H-pyrido[4,3-b][1,4]thiazin-8-yl)benzonitrile] | 0.05 | 2.2
26 | N#Cc1ccc(-c2cncc3c2OCCN3C(=O)Cc2ccc(Cl)cc2)cc1 [O38, 4-(4-(2-(4-Chlorophenyl)acetyl)-3,4-dihydro-2H-pyrido[4,3-b][1,4]oxazin-8-yl)benzonitrile] | 16.8 | 559
27 | N#Cc1ccc(-c2cncc3c2ccn3S(=O)(=O)c2ccc(F)cc2)cc1 [E6, 4-(1-((4-Fluorophenyl)sulfonyl)-1H-pyrrolo[2,3-c]pyridin-4-yl)benzonitrile] | 0.13 | 0.3
28 | N#Cc1ccc(S(=O)(=O)N2CCOc3c(-c4ccc5c(c4)NC(=O)C5)cncc32)cc1 [O132, 4-((8-(2-Oxoindolin-6-yl)-2,3-dihydro-4H-pyrido[4,3-b][1,4]oxazin-4-yl)sulfonyl)benzonitrile] | 5.4 | 168
29 | COc1ccc(S(=O)(=O)N2CCSc3c(-c4ccc(F)cc4)cncc32)cc1 [S30, 8-(4-Fluorophenyl)-4-((4-methoxyphenyl)sulfonyl)-3,4-dihydro-2H-pyrido[4,3-b][1,4]thia zine] | 1 | 19
30 | N#Cc1ccc(-c2cncc3c2CCN3C(=O)c2ccc([N+](=O)[O-])cc2)cc1 [C30, 4-(1-(4-Nitrobenzoyl)-2,3-dihydro-1H-pyrrolo[2,3-c]pyridin-4-yl)benzonitrile] | 11 | 472
